pEC50, pIC50: −log10 of the molar value.
Tests used:
P388 [1] = test: Inhibition of protein-DNA complex in P388 (murine leukemia) cells.; type: functional, Mus musculus
DNA topoisomerase 1 = target: T1, DNA topoisomerase 1 (Homo sapiens, UniProt P11387); test: In vitro inhibition of Topoisomerase I-mediated DNA cleavage using supercoiled pBR322 plasmid DNA.
T1 sequence (P11387 whole entry): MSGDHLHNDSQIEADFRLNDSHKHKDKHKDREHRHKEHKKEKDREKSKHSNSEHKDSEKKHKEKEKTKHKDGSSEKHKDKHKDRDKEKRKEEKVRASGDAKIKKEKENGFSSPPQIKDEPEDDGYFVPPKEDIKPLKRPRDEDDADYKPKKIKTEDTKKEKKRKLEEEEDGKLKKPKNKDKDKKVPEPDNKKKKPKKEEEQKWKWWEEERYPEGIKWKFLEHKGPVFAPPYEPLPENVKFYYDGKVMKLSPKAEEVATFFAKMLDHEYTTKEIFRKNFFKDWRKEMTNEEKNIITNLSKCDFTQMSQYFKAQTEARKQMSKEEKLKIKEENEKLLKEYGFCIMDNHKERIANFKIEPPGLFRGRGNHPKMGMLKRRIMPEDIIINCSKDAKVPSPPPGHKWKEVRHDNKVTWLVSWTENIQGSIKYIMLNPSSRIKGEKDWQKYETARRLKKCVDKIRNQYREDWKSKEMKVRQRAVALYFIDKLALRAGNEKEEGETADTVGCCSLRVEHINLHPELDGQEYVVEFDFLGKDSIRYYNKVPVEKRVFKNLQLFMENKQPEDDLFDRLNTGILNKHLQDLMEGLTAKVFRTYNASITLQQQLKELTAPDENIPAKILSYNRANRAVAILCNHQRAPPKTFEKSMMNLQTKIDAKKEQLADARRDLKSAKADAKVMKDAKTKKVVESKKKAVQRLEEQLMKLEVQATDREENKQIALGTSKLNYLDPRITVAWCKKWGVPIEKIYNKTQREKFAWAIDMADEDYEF

DLD-1 = test: In vitro cytotoxicity against DLD-1 (human colon cancer) cells.; type: functional, cell-based
MKN-45 = test: In vitro cytotoxicity against MKN-45 (human stomach cancer) cells.; type: functional, cell-based
P388 [2] = test: In vitro cytotoxicity against p388 (murine leukemia) cells.; type: functional, cell-based; conditions: Mus musculus
[3] = Compound was tested for anticancer effect on cancer cells implanted subcutaneously into flanks of nude mice and safety margin was determined (LD10/GID75); type: functional, Cancer cell lines
Mus musculus = test: Tested for anticancer effect on MKN-45 human stomach cancer cells implanted subcutaneously into flanks of nude mice.; type: functional

SMILES	EC200 (P388 [1]) [µM]	pEC50 (DNA topoisomerase 1)	pIC50 (DLD-1)	pIC50 (MKN-45)	pIC50 (P388 [2])	Ratio [3]	GID75 (Mus musculus) [mg m**-2]	LD10 (Mus musculus) [mg m**-2]
O=C1c2c(c3c4c(O)cccc4n(C4OC(CO)C(O)C(O)C4O)c3c3[nH]c4ccccc4c23)C(=O)N1NC(CO)CO (stereo not given)	>10	6.31	< 4.52	5.15	6.04			
O=C1c2c(c3c4cccc(O)c4n(C4OC(CO)C(O)C(O)C4O)c3c3[nH]c4c(O)cccc4c23)C(=O)N1NC(CO)CO (stereo not given)	0.45		6.28			5	78	390
O=C1c2c(c3c4ccc(O)cc4n(C4OC(CO)C(O)C(O)C4O)c3c3[nH]c4ccc(O)cc4c23)C(=O)N1NC(CO)CO (stereo not given)	0.35	7.43	7.10	7.25	8.28	3.4	290	1000
O=C1c2c(c3c4ccc(O)cc4n(C4OC(CO)C(O)C(O)C4O)c3c3[nH]c4c(O)cccc4c23)C(=O)N1NC(CO)CO (stereo not given)	0.8	7.26	6.70	7.19	8.00	1.1	320	350
O=C1c2c(c3c4cc(O)ccc4n(C4OC(CO)C(O)C(O)C4O)c3c3[nH]c4ccc(O)cc4c23)C(=O)N1NC(CO)CO (stereo not given)	0.6	6.68	4.96	6.60	8.17	1.3	300	380
O=C1c2c(c3c4ccc(O)cc4n(C4OC(CO)C(O)C(O)C4O)c3c3[nH]c4c(O)cc(O)cc4c23)C(=O)N1NC(CO)CO (stereo not given)	>10	7.05	< 4.52	< 4.52	4.82			
O=C1c2c(c3c4cc(O)cc(O)c4n(C4OC(CO)C(O)C(O)C4O)c3c3[nH]c4c(O)cc(O)cc4c23)C(=O)N1NC(CO)CO (stereo not given)	5.5	6.46	< 4.52	< 4.52	< 4.52			
O=C1c2c(c3c4ccccc4n(C4OC(CO)C(O)C(O)C4O)c3c3[nH]c4ccc(O)cc4c23)C(=O)N1NC(CO)CO (stereo not given)	2	5.96	5.26	6.14	6.89			
O=C1c2c(c3c4ccccc4n(C4OC(CO)C(O)C(O)C4O)c3c3[nH]c4c(O)cccc4c23)C(=O)N1NC(CO)CO (stereo not given)	>10	6.68	5.00	5.80	6.85			
O=C1c2c(c3c4ccc(O)cc4n(C4OC(CO)C(O)C(O)C4O)c3c3[nH]c4ccccc4c23)C(=O)N1NC(CO)CO (stereo not given)	0.4	6.64	6.00	7.60	8.51	1.3	800	1000
O=C1c2c(c3c4cc(O)ccc4n(C4OC(CO)C(O)C(O)C4O)c3c3[nH]c4cc(O)ccc4c23)C(=O)N1NC(CO)CO (stereo not given)	0.65	7.26	6.47	6.92	8.46	1.4	710	1000
O=C1c2c(c3c4ccc(O)cc4n(C4OC(CO)C(O)C(O)C4O)c3c3[nH]c4cc(O)ccc4c23)C(=O)N1NC(CO)CO (stereo not given)	0.1	7.29	6.92	8.32	8.82	>36	45	>1600
O=C1c2c(c3c4ccccc4n(C4OC(CO)C(O)C(O)C4O)c3c3[nH]c4cc(O)ccc4c23)C(=O)N1NC(CO)CO (stereo not given)	1.2	6.19	5.70	6.96	7.89	3.3	820	2700
O=C1c2c(c3c4cccc(O)c4n(C4OC(CO)C(O)C(O)C4O)c3c3[nH]c4ccccc4c23)C(=O)N1NC(CO)CO (stereo not given)	2	6.19	5.59	6.19	7.66			
O=C1c2c(c3c4cc(O)ccc4n(C4OC(CO)C(O)C(O)C4O)c3c3[nH]c4ccccc4c23)C(=O)N1NC(CO)CO (stereo not given)	4.5	5.72	< 4.52	5.38	7.33			
O=C1c2c(c3c4cccc(O)c4n(C4OC(CO)C(O)C(O)C4O)c3c3[nH]c4cc(O)ccc4c23)C(=O)N1NC(CO)CO (stereo not given)	0.4	6.80	7.05	7.06	8.27	1.7	220	370
O=C1c2c(c3c4cccc(O)c4n(C4OC(CO)C(O)C(O)C4O)c3c3[nH]c4ccc(O)cc4c23)C(=O)N1NC(CO)CO (stereo not given)	0.55	6.29	6.66	6.60	7.49	0.8	2500	1900
O=C1c2c(c3c4cc(O)ccc4n(C4OC(CO)C(O)C(O)C4O)c3c3[nH]c4c(O)cccc4c23)C(=O)N1NC(CO)CO (stereo not given)	3	6.89	5.29	6.52	7.51	0.8	2200	1800
O=C1c2c(c3c4ccccc4n(C4OC(CO)C(O)C(O)C4O)c3c3[nH]c4cccc(O)c4c23)C(=O)N1NC(CO)CO (stereo not given)	>10	6.24	< 4.52	5.68	6.15			

From ChEMBL document CHEMBL1131892, “Synthesis and biological activities of NB-506 analogues: Effects of the positions of two hydroxyl groups at the indole rings” (Bioorg Med Chem Lett, 1999)
